Test results as given in paper PMC4627230, “Identification of TAX2 peptide as a new unpredicted anti-cancer agent” (Oncotarget, 2015).

Tests used:
[1] = tested on: HUVECs; assay: Boyden chamber / Transwell migration assay; assay type: cell-based, human
Method: Figure 2 TAX2 peptide impairs endothelial cell migration and inhibits angiogenesis in vitro and ex vivo A. HUVECs were treated with TAX2 (100 μM) or scrambled peptide (Ctrl, 100 μM). CD47 was immunoprecipitated from total protein lysates using anti-CD47 (clone B6H12) and non-specific IgGs were used as a negative control. Immunocomplexes were then submitted to SDS-PAGE and immunoblotted (IB) using specific TSP-1 and CD47 antibodies. Histogram represents the quantification of co-immunoprecipitated TSP-1 relative to immunoprecipitated CD47. Results are expressed as percentage compared to control (n = 3 separate experiments, t test). B. HUVECs (1 × 10^5 per well) were grown at confluence and then cell proliferation was inhibited by incubating with 10 μg/mL mitomycin C for 2 h. Migration assays were performed for 9 h with or without TAX2 peptide (100 μM), as described in Materials and Methods. Photographs (100×) were taken every 3 h. Graph represents the quantification of the wounded area. […] Hoechst-stained migrating cells attached on outside surface of the top chamber were photographed (20× objective) and counted. Results are expressed as percentage of migrated cells as compared to control. […] After 8 h incubation, HUVEC tube-like formation was observed on an inverted microscope (40×) and quantification of network total length was done using ImageJ software. […] Data are expressed as the mean ± SE from at least 3 independent experiments, each performed in triplicate. […] The transcriptional level of TSP-1 was assessed by RT-PCR and normalized to β-actin. […] After 6 days incubation in the presence of 100 μM TAX2 or control peptide (Ctrl), images were taken with an inverted microscope (40×) and microvessel area was quantified using ImageJ software. […]
Figure 3 Anti-angiogenic properties of TAX2 are mediated by TSP-1 binding to CD36 A. Expression of CD36 in HUVECs was assessed by immunoblotting (left panel) and immunofluorescence staining (right panel, red). […] The presence of TSP-1 in immunocomplexes was quantified by densitometric analysis relative to immunoprecipitated CD36. […]

[2] = tested on: TSP-1 binding to CD36; assay: Co-immunoprecipitation TSP-1:CD36 in HUVECs; assay type: cell-based, human; settings: 100 μM, 24 h
Method: Figure 3 Anti-angiogenic properties of TAX2 are mediated by TSP-1 binding to CD36 A. Expression of CD36 in HUVECs was assessed by immunoblotting (left panel) and immunofluorescence staining (right panel, red). Nuclei were counterstained with DAPI (blue). B. HUVECs were incubated with 100 μM cyclic TAX2 or in control conditions for 24 h. Then, CD36-containing complexes were co-immunoprecipitated from whole cell extracts (non-specific IgGs were used as a negative control for immunoprecipitation). Immunocomplexes were submitted to SDS-PAGE and immunoblotted (IB) by using specific antibodies for TSP-1 and CD36. The presence of TSP-1 in immunocomplexes was quantified by densitometric analysis relative to immunoprecipitated CD36. C. VEGFR2 phosphorylation induced by VEGF in the presence of TAX2. After overnight serum starvation, HUVECs were pre-treated with 100 μM TAX2 or control for 12 h, then incubated with 30 ng/mL VEGF for 5 min. […] Data are expressed as the mean ± SE (n = 3; *p < 0.05, ANOVA). […] Quantification of total tube-like network length was realized using ImageJ software E. Branching points F. and nodal structures G. were numbered using the S.CORE web-based system. Data are expressed as the mean ± SE (n = 3; *p < 0.05, ANOVA). […]

CEVSQLLKGDAC (disulfide) [TAX2, CD47-derived cyclic disulfide dodecapeptide …]
inhibition of endothelial cell migration (Boyden chamber) ([1]; HUVECs, 100 μM, 12 h, EGM-2, mean of 5 in triplicate): 50%
prevention of endothelial cell migration in presence of CD36 blocking antibody ([1]; HUVECs, 100 μM, 12 h, anti-CD36 10 μg/mL, n = 3): wholly reversed
concentration of optimal inhibition of endothelial cell migration ([1]; dose-response assay, data not shown, migration format not specified): 100 µM
increase of TSP-1 co-immunoprecipitated with CD36 [2]: 3 fold
